The target of assay [1] is T1, HiBiT-BRM (Homo sapiens, UniProt P51531).
T1 construct: expressed in transfected cells
In words: HiBiT-BRM cell-based degradation assay (Nano-Glo HiBiT Lytic Detection). As to conditions: HeLa cells expressing HiBiT-BRM, 24 h; for DC50: read-out: BRM HiBit Degradation IC50. Summed up: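 Luminescence from HiBiT–LgBiT complementation in lysates of a stable HiBiT-BRM HeLa line measured after 24 h compound exposure. Degradation expressed as percent relative to DMSO-treated cells and cells given 2 μM of a known BRM/BRG1 degrader.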
Background: The HiBiT peptide binds its large partner to form an active luciferase.

Assay [2] addresses T2, HiBit-BRG1 (Homo sapiens, UniProt P51532).
T2 construct: expressed in transfected cells
In words: HiBit-BRG1 cell-based degradation assay (Nano-Glo HiBiT Lytic Detection). As to conditions: HeLa cells expressing HiBit-BRG1 and LgBit, 24 h; for DC50: read-out: BRG1 HiBit Degradation IC50; for Dmax: read-out: BRG1 HiBit Degradation Maximum (%). A digest of the protocol:
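Percent degradation derived from lytic HiBiT signal, normalized to DMSO-treated cells and to cells given 2 μM of a known BRM/BRG1 degrader. The HeLa line stably expressed HiBit-BRG1 and LgBit; treatment lasted 24 h at 5000 cells per well.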

T2 sequence (P51532 whole entry): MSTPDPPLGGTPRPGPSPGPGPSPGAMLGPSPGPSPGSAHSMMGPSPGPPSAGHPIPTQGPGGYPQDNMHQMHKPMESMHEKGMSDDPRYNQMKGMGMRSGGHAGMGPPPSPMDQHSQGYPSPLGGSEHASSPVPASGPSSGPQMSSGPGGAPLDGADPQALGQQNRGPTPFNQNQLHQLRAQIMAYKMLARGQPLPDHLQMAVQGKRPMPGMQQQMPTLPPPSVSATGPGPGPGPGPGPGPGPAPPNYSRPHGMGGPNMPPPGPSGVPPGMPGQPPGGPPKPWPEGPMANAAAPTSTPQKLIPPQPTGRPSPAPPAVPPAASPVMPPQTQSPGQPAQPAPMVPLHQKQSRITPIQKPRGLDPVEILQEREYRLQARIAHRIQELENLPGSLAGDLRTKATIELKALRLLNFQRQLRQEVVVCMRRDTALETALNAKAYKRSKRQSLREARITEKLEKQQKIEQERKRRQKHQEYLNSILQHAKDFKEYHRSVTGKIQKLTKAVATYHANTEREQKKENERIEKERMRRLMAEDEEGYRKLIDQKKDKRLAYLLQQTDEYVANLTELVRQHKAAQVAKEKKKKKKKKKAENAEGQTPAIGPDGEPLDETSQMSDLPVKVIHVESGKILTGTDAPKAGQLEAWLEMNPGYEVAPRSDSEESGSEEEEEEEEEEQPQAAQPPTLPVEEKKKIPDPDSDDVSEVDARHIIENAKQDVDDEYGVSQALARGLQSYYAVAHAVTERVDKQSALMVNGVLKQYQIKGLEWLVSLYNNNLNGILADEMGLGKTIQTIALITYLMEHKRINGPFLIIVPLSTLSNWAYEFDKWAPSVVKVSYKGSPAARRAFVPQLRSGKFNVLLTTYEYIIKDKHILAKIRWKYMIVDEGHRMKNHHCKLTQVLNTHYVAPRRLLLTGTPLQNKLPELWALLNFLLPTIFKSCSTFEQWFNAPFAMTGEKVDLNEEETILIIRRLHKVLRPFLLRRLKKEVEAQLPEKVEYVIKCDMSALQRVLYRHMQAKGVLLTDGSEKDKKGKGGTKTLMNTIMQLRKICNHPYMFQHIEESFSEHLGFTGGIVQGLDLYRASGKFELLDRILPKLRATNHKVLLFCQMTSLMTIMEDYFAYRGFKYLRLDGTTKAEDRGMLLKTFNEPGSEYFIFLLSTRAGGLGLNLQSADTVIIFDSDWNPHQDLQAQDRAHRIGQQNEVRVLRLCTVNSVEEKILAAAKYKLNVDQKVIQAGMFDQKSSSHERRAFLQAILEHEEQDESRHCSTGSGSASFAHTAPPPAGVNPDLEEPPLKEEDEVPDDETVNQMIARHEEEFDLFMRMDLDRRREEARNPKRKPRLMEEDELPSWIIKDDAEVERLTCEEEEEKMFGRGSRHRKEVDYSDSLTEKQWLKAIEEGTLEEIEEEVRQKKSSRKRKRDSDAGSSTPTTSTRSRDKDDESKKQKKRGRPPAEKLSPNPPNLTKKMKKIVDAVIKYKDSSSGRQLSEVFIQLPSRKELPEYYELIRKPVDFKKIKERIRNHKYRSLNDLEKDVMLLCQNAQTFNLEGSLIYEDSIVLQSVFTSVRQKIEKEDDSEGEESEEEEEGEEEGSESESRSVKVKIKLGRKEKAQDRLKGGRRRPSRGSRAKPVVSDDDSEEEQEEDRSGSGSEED
T1 sequence (P51531 whole entry): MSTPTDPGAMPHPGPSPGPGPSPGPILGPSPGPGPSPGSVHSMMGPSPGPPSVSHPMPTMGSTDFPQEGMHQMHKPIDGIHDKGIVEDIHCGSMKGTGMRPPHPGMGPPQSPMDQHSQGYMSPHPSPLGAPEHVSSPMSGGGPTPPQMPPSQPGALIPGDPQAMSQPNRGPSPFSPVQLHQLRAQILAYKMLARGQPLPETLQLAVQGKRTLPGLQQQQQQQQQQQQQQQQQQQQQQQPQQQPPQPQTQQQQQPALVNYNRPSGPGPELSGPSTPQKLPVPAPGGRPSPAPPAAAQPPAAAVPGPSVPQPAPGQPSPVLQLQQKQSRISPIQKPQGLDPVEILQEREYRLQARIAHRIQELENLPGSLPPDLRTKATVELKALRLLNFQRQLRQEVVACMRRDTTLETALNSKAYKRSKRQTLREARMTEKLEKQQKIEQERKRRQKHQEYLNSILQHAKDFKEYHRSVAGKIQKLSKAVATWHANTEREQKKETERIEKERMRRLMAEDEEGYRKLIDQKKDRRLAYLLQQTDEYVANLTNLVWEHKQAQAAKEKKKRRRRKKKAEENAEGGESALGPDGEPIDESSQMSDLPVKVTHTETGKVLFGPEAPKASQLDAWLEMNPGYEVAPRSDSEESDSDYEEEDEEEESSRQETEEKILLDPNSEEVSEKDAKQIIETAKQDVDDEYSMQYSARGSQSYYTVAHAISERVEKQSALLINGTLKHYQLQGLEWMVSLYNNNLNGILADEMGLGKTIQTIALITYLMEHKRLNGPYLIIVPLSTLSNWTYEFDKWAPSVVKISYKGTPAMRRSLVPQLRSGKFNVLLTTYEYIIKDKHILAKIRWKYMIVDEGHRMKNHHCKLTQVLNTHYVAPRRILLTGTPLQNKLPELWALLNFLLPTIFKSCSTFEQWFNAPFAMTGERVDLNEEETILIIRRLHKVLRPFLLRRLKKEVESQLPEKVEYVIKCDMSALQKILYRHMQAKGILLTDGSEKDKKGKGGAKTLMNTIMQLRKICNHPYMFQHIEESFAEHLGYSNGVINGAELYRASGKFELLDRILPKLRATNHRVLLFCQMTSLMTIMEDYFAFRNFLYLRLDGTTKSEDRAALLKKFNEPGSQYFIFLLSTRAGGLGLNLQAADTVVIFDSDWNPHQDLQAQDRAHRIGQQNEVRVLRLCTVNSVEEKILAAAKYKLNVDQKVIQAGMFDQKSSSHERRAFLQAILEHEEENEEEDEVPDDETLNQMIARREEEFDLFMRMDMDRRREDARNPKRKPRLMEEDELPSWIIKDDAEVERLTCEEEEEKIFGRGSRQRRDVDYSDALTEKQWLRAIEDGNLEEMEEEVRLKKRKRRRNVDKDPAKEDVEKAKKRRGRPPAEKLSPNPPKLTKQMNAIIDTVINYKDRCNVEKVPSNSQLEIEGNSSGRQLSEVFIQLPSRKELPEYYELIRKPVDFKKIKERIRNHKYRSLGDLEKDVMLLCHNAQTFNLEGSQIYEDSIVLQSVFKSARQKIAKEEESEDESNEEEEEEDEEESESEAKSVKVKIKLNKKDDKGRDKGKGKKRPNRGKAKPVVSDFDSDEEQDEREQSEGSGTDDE

For the compound `Cc1ncsc1-c1ccc(CNC(=O)[C@@H]2C[C@@H](O)CN2C(=O)[C@@H](NC(=O)CCN2C[C@H]3CC[C@@H](C2)N3C(=O)c2ccc(CCOc3cc(-c4ccccc4O)nnc3N)cc2)C(C)(C)C)cc1` [Compound 226, (2S,4R)-1-((2S)-2-(3-(8-(4-(2-((3-amino-6-(2-hydroxyphenyl)pyridazin-4-yl)oxy)ethyl)benzoyl)-3,8-diazabicyclo[3.2.1]octan-3-yl)propanamido)-3,3-dimethylbutanoyl)-4-hydroxy-N-(4-(4-methylthiazol-5-yl)benzyl)pyrrolidine-2-carboxamide], in assay [1], the “BRM HiBit Degradation Maximum (%)” value was “B (“B” indicates maximum degradation ≥50%)” and the DC50 was over 1000 nM. Besides, in assay [2], the DC50 is over 1000 nM and the Dmax is under 50%.
As to `Nc1nnc(-c2ccccc2O)cc1OCCc1ccc(CNC(=O)CCCOc2cccc3c2C(=O)N(C2CCC(=O)NC2=O)C3=O)cc1` (centres unmarked) [Compound 65, N-[[4-(2-[[3-amino-6-(2-hydroxyphenyl)pyridazin-4-yl]oxy]ethyl)phenyl]methyl]-4-[[2-(2,6-dioxopiperidin-3-yl)-1,3-dioxoisoindol-4-yl]oxy]butanamide], in assay [1], the “BRM HiBit Degradation Maximum (%)” value is recorded as “C (“C” indicates maximum degradation <50%)” and the DC50 is over 1000 nM. Moreover, in assay [2], the DC50 is over 1000 nM and the Dmax was under 50%.
`Cc1ncsc1-c1ccc(CNC(=O)[C@@H]2C[C@@H](O)CN2C(=O)[C@@H](NC(=O)CCN2CC3=C(C2)CN(C(=O)c2ccc(CCOc4cc(-c5ccccc5O)nnc4N)cc2)C3)C(C)(C)C)cc1` [Compound 219, (2S,4R)-1-((S)-2-(3-(5-(4-(2-((3-amino-6-(2-hydroxyphenyl)pyridazin-4-yl)oxy)ethyl)benzoyl)-3,4,5,6-tetrahydropyrrolo[3,4-c]pyrrol-2(1H)-yl)propanamido)-3,3-dimethylbutanoyl)-4-hydroxy-N-(4-(4-methylthiazol-5-yl)benzyl)pyrrolidine-2-carboxamide]: in assay [1], the “BRM HiBit Degradation Maximum (%)” value is listed as “B (“B” indicates maximum degradation ≥50%)” and the DC50 is over 1000 nM. In assay [2], the DC50 is over 1000 nM and the Dmax was under 50%.
For the compound `Nc1nnc(-c2ccccc2O)cc1OCCc1ccc(C(=O)NCCCCCCC(=O)NCc2ccc(S(=O)(=O)Nc3cccc4c(Cl)c[nH]c34)cc2)cc1` [Compound 13, 7-[[4-(2-[[3-amino-6-(2-hydroxyphenyl)pyridazin-4-yl]oxy]ethyl)phenyl]formamido]-N-([4-[(3-chloro-1H-indol-7-yl)sulfamoyl]phenyl]methyl)heptanamide], in assay [1], the “BRM HiBit Degradation Maximum (%)” value is “C (“C” indicates maximum degradation <50%)” and the DC50 was over 1000 nM. For the same compound, in assay [2], the DC50 is over 1000 nM and the Dmax is under 50%.
For the compound `Nc1nnc(-c2ccccc2O)cc1OCCc1ccc(CNCCCCCOc2ccc3c(c2)C(=O)N(C2CCC(=O)NC2=O)C3=O)cc1` (centres unmarked) [Compound 116, 5-((5-((4-(2-((3-amino-6-(2-hydroxyphenyl)pyridazin-4-yl)oxy)ethyl)benzyl)amino)pentyl)oxy)-2-(2,6-dioxopiperidin-3-yl)isoindoline-1,3-dione; diformic acid], in assay [1], the “BRM HiBit Degradation Maximum (%)” value is “C (“C” indicates maximum degradation <50%)” and the DC50 is over 1000 nM. In assay [2], the DC50 was over 1000 nM and the Dmax was under 50%.
In the case of `Cc1ncsc1-c1ccc([C@H](C)NC(=O)[C@@H]2C[C@@H](O)CN2C(=O)[C@@H](c2cc(OCCN3CC4(C3)CN(CC(=O)NCc3ccc(CCOc5cc(-c6ccccc6O)nnc5N)cc3)C4)no2)C(C)C)cc1` [Compound 191, (2S,4R)-1-[(2R)-2-[3-(2-[6-[([[4-(2-[[3-amino-6-(2-hydroxyphenyl)pyridazin-4-yl]oxy]ethyl)phenyl]methyl]carbamoyl)methyl]-2,6-diazaspiro[3.3]heptan-2-yl]ethoxy)-1,2-oxazol-5-yl]-3-methylbutanoyl]-4-hydroxy-N-[(1S)-1-[4-(4-methyl-1,3-thiazol-5-yl)phenyl]ethyl]pyrrolidine-2-carboxamide], in assay [1], the “BRM HiBit Degradation Maximum (%)” value was “A (“A” indicates maximum degradation ≥75%)” and the DC50 is over 100 nM. Moreover, in assay [2], the DC50 is over 1000 nM and the Dmax is over 75%.
Consider `Cc1ncsc1-c1ccc(CNC(=O)[C@@H]2C[C@@H](O)CN2C(=O)[C@@H](NC(=O)COCC(=O)NCc2ccc(CCOc3cc(-c4ccccc4O)nnc3N)cc2)C(C)(C)C)cc1` [Compound 165, (2S,4R)-1-((S)-2-(2-(2-((4-(2-((3-amino-6-(2-hydroxyphenyl)pyridazin-4-yl)oxy)ethyl)benzyl)amino)-2-oxoethoxy)acetamido)-3,3-dimethylbutanoyl)-4-hydroxy-N-(4-(4-methylthiazol-5-yl)benzyl)pyrrolidine-2-carboxamide], for which, in assay [1], the “BRM HiBit Degradation Maximum (%)” value is listed as “A (“A” indicates maximum degradation ≥75%)” and the DC50 was over 1000 nM. In addition, in assay [2], the DC50 is over 1000 nM and the Dmax is under 50%.
Take `Nc1nnc(-c2ccccc2O)cc1OCCc1ccc(CNCCCCNc2cccc3c2C(=O)N(C2CCC(=O)NC2=O)C3=O)cc1` (centres unmarked) [Compound 107, 4-[[4-([[4-(2-[[3-amino-6-(2-hydroxyphenyl)pyridazin-4-yl]oxy]ethyl)phenyl]methyl]amino)butyl]amino]-2-(2,6-dioxopiperidin-3-yl)isoindole-1,3-dione]: in assay [1], the “BRM HiBit Degradation Maximum (%)” value is recorded as “C (“C” indicates maximum degradation <50%)” and the DC50 is over 1000 nM. In assay [2], the DC50 was over 1000 nM and the Dmax was over 50%.
`Nc1nnc(-c2ccccc2O)cc1OCCc1ccc(CNC(=O)CCCCCCCCCCNc2ccc3c(c2)C(=O)N(C2CCC(=O)NC2=O)C3=O)cc1` (centres unmarked) [Compound 66]: in assay [1], the “BRM HiBit Degradation Maximum (%)” value was “C (“C” indicates maximum degradation <50%)” and the DC50 is over 1000 nM. Also, in assay [2], the DC50 was over 1000 nM and the Dmax is under 50%.
For `Cc1ncsc1-c1ccc([C@H](C)NC(=O)[C@@H]2C[C@@H](O)CN2C(=O)[C@@H](c2cc(OCCN3C[C@H]4CC[C@@H](C3)N4C(=O)c3ccc(CCOc4cc(-c5ccccc5O)nnc4N)cc3)no2)C(C)C)cc1` [Compound 220, (2S,4R)-1-((2R)-2-(3-(2-(8-(4-(2-((3-amino-6-(2-hydroxyphenyl)pyridazin-4-yl)oxy)ethyl)benzoyl)-3,8-diazabicyclo[3.2.1]octan-3-yl)ethoxy)isoxazol-5-yl)-3-methylbutanoyl)-4-hydroxy-N-((S)-1-(4-(4-methylthiazol-5-yl)phenyl)ethyl)pyrrolidine-2-carboxamide], in assay [1], the “BRM HiBit Degradation Maximum (%)” value is listed as “A (“A” indicates maximum degradation ≥75%)” and the DC50 is under 10 nM. Besides, in assay [2], the DC50 was over 10 nM and the Dmax was over 75%.
For `Cc1ncsc1-c1ccc(CNC(=O)[C@@H]2C[C@@H](O)CN2C(=O)[C@@H](NC(=O)CCCCCCCNC(=O)c2ccc(CCOc3cc(-c4ccccc4O)nnc3N)cc2)C(C)(C)C)cc1` [Compound 57, (2S,4R)-1-[(2S)-2-(8-[[4-(2-[[3-amino-6-(2-hydroxyphenyl)pyridazin-4-yl]oxy]ethyl)phenyl]formamido]octanamido)-3,3-dimethylbutanoyl]-4-hydroxy-N-[[4-(4-methyl-1,3-thiazol-5-yl)phenyl]methyl]pyrrolidine-2-carboxamide], in assay [1], the “BRM HiBit Degradation Maximum (%)” value was “B (“B” indicates maximum degradation ≥50%)” and the DC50 is over 100 nM. Further, in assay [2], the DC50 is over 1000 nM and the Dmax was under 50%.
With `Cc1ncsc1-c1ccc(CNC(=O)[C@@H]2C[C@@H](O)CN2C(=O)[C@@H](NC(=O)CCCCCCCCCCCCC(=O)NCc2ccc(CCOc3cc(-c4ccccc4O)nnc3N)cc2)C(C)(C)C)cc1` [Compound 36], in assay [1], the “BRM HiBit Degradation Maximum (%)” value was “B (“B” indicates maximum degradation ≥50%)” and the DC50 is over 10 nM. Further, in assay [2], the DC50 is over 1000 nM and the Dmax was under 50%.
The corresponding values for `Cc1ncsc1-c1ccc([C@H](C)NC(=O)[C@@H]2C[C@@H](O)CN2C(=O)[C@@H](c2cc(OCCN3CC4CN(C(=O)c5ccc(CCOc6cc(-c7ccccc7O)nnc6N)cc5)CC43)no2)C(C)C)cc1` (stereo partly drawn) [Compound 225, (2S,4R)-1-((2R)-2-(3-(2-(3-(4-(2-((3-amino-6-(2-hydroxyphenyl)pyridazin-4-yl)oxy)ethyl)benzoyl)-3,6-diazabicyclo[3.2.0]heptan-6-yl)ethoxy)isoxazol-5-yl)-3-methylbutanoyl)-4-hydroxy-N-((S)-1-(4-(4-methylthiazol-5-yl)phenyl)ethyl)pyrrolidine-2-carboxamide] are “A (“A” indicates maximum degradation ≥75%)”, over 100 nM, over 100 nM and over 75%.
`Cc1ncsc1-c1ccc(CNC(=O)[C@@H]2C[C@@H](O)CN2C(=O)[C@@H](NC(=O)CCC(=O)NCc2ccc(CCOc3cc(-c4ccccc4O)nnc3N)cc2)C(C)(C)C)cc1` [Compound 29, N′-[[4-(2-[[3-amino-6-(2-hydroxyphenyl)pyridazin-4-yl]oxy]ethyl)phenyl]methyl]-N-[(2S)-1-[(2S,4R)-4-hydroxy-2-([[4-(4-methyl-1,3-thiazol-5-yl)phenyl]methyl]carbamoyl)pyrrolidin-1-yl]-3,3-dimethyl-1-oxobutan-2-yl]succinamide]: in assay [1], the “BRM HiBit Degradation Maximum (%)” value was “B (“B” indicates maximum degradation ≥50%)” and the DC50 was over 1000 nM. For the same compound, in assay [2], the DC50 was over 1000 nM and the Dmax is under 50%.

The record behind these values is patent US20230150974A1 (Foghorn Therapeutics Inc., priority 2020, published 2023).
